Results taken from US20230310537A1, “TREATMENT OF VASCULAR EHLERS-DANLOS SYNDROME AND RELATED SYNDROMES” (The Johns Hopkins University, priority 2020, published 2023).
“Also recorded” adds a separate entry of the source.

What was measured:
pERK1/2 = assay: Western blot of pERK1/2 in proximal descending aortas of treated vEDS mice; assay type: in vivo; conditions: aortas of Col3a1^G938D/+ mice, SB203580 treated vs placebo treated; p<0.01
Description: (§1) Protein was extracted using an automatic bead homogenizer in conjunction with a Protein Extraction Kit (Full Moon Biosystems). All protein lysis buffers contained both PhosSTOP and Complete™, Mini, EDTA-free Protease Inhibitor Cocktail (Roche). Western blotting was performed using LI-COR buffer and species appropriate secondary antibodies conjugated to IR-dye700 or IRdye-800 (LI-COR Biosciences), according to the manufacturer's guidelines and analyzed using LI-COR Odyssey. The following primary antibodies were used: anti-β-Actin (8H10D10) (Cell Signaling Technology, 3700), anti-phospho ERK1/2 (Cell Signaling Technology, 4370), anti-PKCβ (phospho 5660) (Abcam, 75837), anti-phospho p38 (Cell Signaling Technology, 4511).
(§2) For drug trials in the Col3a1/^G938D/+ mice, mice were initiated on medication at weaning and continued until the end of the trial. Cobimetinib (GDC-0973/R0551404, Active Biochem) was dissolved in drinking water and filtered to reach a final concentration of 0.02 g/L giving an estimated dose of 2 mg/kg/day. Ruboxistaurin (LY333531 HCl, Selleck Chemicals) was mixed with powdered food (LabDiet) to give a concentration of 0.1 mg/g giving an estimated dose of 8 mg/kg/day. SB203580 (Selleck Chemicals) was administered at a dose of 5 mg/kg/d every 3 days by intraperitoneal injection. […]

BL6 Col3a1^G938D/+ mice = assay: Kaplan-Meier survival / vascular rupture of drug-treated BL6 vEDS mice; assay type: in vivo; conditions: for elevated risk of rupture caused by the p38 inhibitor, under concomitant treatment (Kaplan-Meier survival): BL6 Col3a1^G938D/+ mice receiving SB203580 IP plus test drug (cobimetinib via drinking water, ruboxistaurin via chow) from weaning for 30 days, vs SB203580 alone
Text: Mice were maintained either on a C57BL/6J background (#000664, The Jackson Laboratory) or on a 129S6/SvEvTac background (#129SVE, Taconic Biosciences). Mice were considered to be 129S6/SvEvTac after backcrossing for a minimum of 4 generations. F1 and mixed mice were generated by interbreeding pure C57BL/6J and 129S6/SvEvTac mice. To identify the dominant genetic locus, mixed background wild-type females were bred to Col3a1^G938D/+ male mice on a pure BL6 background. Mice haploinsufficient or knockout for Map2k6 were originally obtained from the Jackson Laboratory (#008382) and backcrossed in the lab for a minimum of 10 generations. Restriction enzymes were used to detect the presence or absence of the Col3a1 mutation. The G209S mutation leads to the loss of an AvaII cut site and the G938D mutation leads to the gain of a BamHI cut site (AvaII R0153L; BamHI-HF R3136S, New England Biolabs). All mice found dead were assessed for cause of death by necropsy, noting in particular hemothorax and hemoperitoneum.
For drug trials in the Col3a1/^G938D/+ mice, mice were initiated on medication at weaning and continued until the end of the trial. Cobimetinib (GDC-0973/R0551404, Active Biochem) was dissolved in drinking water and filtered to reach a final concentration of 0.02 g/L giving an estimated dose of 2 mg/kg/day. Ruboxistaurin (LY333531 HCl, Selleck Chemicals) was mixed with powdered food (LabDiet) to give a concentration of 0.1 mg/g giving an estimated dose of 8 mg/kg/day. SB203580 (Selleck Chemicals) was administered at a dose of 5 mg/kg/d every 3 days by intraperitoneal injection. Animals receiving placebo (5% Tween in PBS) were also injected every 3 days by intraperitoneal injection.
Kaplan-Meier survival curves were compared using a log-rank (Mantel-Cox) test. Mice were censored only if unrelated to the outcome, such as for planned biochemical or histologic analysis or if the authors were directed to euthanize them by animal care staff, for malocclusion, fight wounds, or genital prolapse.

pPKCβ = assay: Western blot of pPKCβ in proximal descending aortas of treated vEDS mice; assay type: in vivo; conditions: aortas of Col3a1^G938D/+ mice, SB203580 treated vs placebo treated; p<0.01
Description: as §1, §2

[1] = tested on: severe (Col3a1 G938D/+) and mild (Col3a1^G209S/+) mouse models of vEDS; conditions: either vEDS mouse model; interventions that inhibit PKC/ERK activation; cited from earlier work
MFS mice = conditions: therapies that attenuate TGF-β signaling and related pathways; cited from earlier work

| SMILES | elevated risk of rupture caused by the p38 inhibitor, under concomitant treatment (Kaplan-Meier survival) (BL6 Col3a1^G938D/+ mice) | aortic disease rupture risk [1] | further results |
| --- | --- | --- | --- |
| C[S+]([O-])c1ccc(-c2nc(-c3ccncc3)c(-c3ccc(F)cc3)[nH]2)cc1 (centres unmarked) [SB203580] | – | – | ERK activation (pERK1/2 levels normalized to β-actin) (pERK1/2): increase; rate of death / vascular rupture risk (Kaplan-Meier survival vs placebo) (BL6 Col3a1^G938D/+ mice; BL6 Col3a1^G938D/+ mice, IP injection every 3 days starting at weaning, continuing for 40 days, Log-Rank p<0.01): significantly increased the rate of death; also recorded: increases vascular rupture risk; PKC activation (pPKCβ levels normalized to β-actin) (pPKCβ): increase |
| O=C(c1ccc(F)c(F)c1Nc1ccc(I)cc1F)N1CC(O)([C@@H]2CCCCN2)C1 [cobimetinib] | rescued | rescue aortic disease rupture risk | – |
| CCCCc1nc(Cl)c(CO)n1Cc1ccc(-c2ccccc2-c2nn[nH]n2)cc1 [losartan] | – | – | aortic disease (MFS mice): suppress aortic disease |
| CN(C)C[C@@H]1CCn2cc(c3ccccc32)C2=C(C(=O)NC2=O)c2cn(c3ccccc23)CCO1 [ruboxistaurin] | rescued | rescue aortic disease rupture risk | – |
